Test results: patent publication US4505924A, “Pharmaceutical preparation for the topical treatment of acne” (Richardson-Vicks Ltd., priority 1982, dated 1985)
Read-outs that look alike come from different tables or passages of the source.

Experiments:
lipase = experiment: Direct inhibition of P. acnes lipase activity; type: biochemical, Propionibacterium acnes
Method: (§1) Imazalil and Hexamidine have been studied for anti-enzymic properties against the production and activity of the exoenzymes of Propionibacterium acnes.
There was a 29% reduction of lipase activity in the presence of 10 μg/ml Imazalil and a 68% reduction with 100 μg/ml Imazalil.
(i) A leval of 1 μg/ml Hexamidine reduced lipase activity by 33%.
(i) 100 μg/ml Imazalil and 1 ug/ml Hexamidine reduced lipase activity by 55%.

P. acnes [1] = experiment: Zone diffusion test; type: cell-based
Method: (§2) A zone diffusion test was carried out on the three emulsions. The results were as follows:
(§3) The ranking order for activity against P. acnes was the same as the GMS emulsions.

S. epidermidis = experiment: Zone diffusion test; type: cell-based
Method: as §2, §3

[2] = Zone diffusion test for synergistic activity; type: cell-based; details: single substance; for zone of inhibition at 10 µg/disc: 10 μg; for zone of inhibition at 100 µg/disc: 100 μg
Method: Imazalil and Hexamidine were tested for synergistic activity using a zone diffusion test.

P. acnes [3] = experiment: Zone diffusion test using 1% artificial sebum in agar (resistance to inactivation by sebum); type: cell-based; details: for zone of inhibition at 10 µg/disc / zone of inhibition at 100 µg/disc: Cutibacterium acnes; for zone of inhibition at 10 µg/disc: 10 μg; for zone of inhibition at 100 µg/disc: 100 μg
acid phosphatase = experiment: Acid phosphatase production by P. acnes in continuous culture (chemostat); type: cell-based, Propionibacterium acnes; details: growth in the presence of 10 μg/ml Imazalil
Description: (§4) The enzymes are believed to play a role in the pathogenesis of acne. Imazalil is a direct lipase inhibitor and also reduces the production of hyaluronidase and acid phosphatase. Hexamidine likewise reduces the lipase activity.
as §1
(§5) (ii) Imazalil reduced the output of hyaluronidase and acid phosphatase by P.acnes.
(§6) Levels of hyaluronidase fell by 50% after growth in the presence of 10 μg/ml Imazalil.
(§7) (ii) Production of lipase, hyaluronidase and acid phosphatase was markedly affected by a mixture of 10 μg/ml Imazalil and 1 μg/ml Hexamidine. […] Hyaluronidase output was reduced by 50%. Acid phosphatase output was reduced by 80%.

hyaluronidase = experiment: Hyaluronidase production by P. acnes in continuous culture (chemostat); type: cell-based, Propionibacterium acnes; details: growth in the presence of 10 μg/ml Imazalil
Description: as §4, §1, §5, §6, §7

Pi. ovale = experiment: Zone diffusion test; type: cell-based; details: Pityrosporum ovale, read-out: Zone of Imhibition, Pi. ovale
[4] = 1% artificial sebum in agar, read-out: Zone of Inhibition, Sebum
[5] = control agar, read-out: Zone of Inhibition, Control

## N=C(N)c1ccc(OCCCCCCOc2ccc(C(=N)N)cc2)cc1 [Hexamidine, 4,4-(hexamethylene (dihydroxy)-dibenzamidine-di-β-hydroxy ethanesulfonate]
lipase; 1 μg/ml Hexamidine
  reduction of lipase activity: 33%
P. acnes [1]; 20 μg
  Zone of Imhibition, P. acnes: 22.5 mm
P. acnes [1]; Cutibacterium acnes, 20 μg, read-out: Zone of Imhibition, P. acnes
  zone of inhibition at 20 µg/disc: 17 mm
S. epidermidis; 20 μg
  Zone of Imhibition, S. epidermidis: 13 mm
S. epidermidis; Staphylococcus epidermidis, 20 μg, read-out: Zone of Imhibition, S. epidermidis
  zone of inhibition at 20 µg/disc: 10 mm
[2]; 1 μg
  zone of inhibition at 1 µg/disc: 3 mm
[2]
  zone of inhibition at 10 µg/disc: 10 mm
  zone of inhibition at 100 µg/disc: 29.5 mm
P. acnes [3]; 1% artificial sebum in agar
  inhibitive effect of lipids (sebum) on activity: totally resistant
P. acnes [3]; [4]
  zone of inhibition at 10 µg/disc: 11 mm
  zone of inhibition at 100 µg/disc: 33 mm
P. acnes [3]; [5]
  zone of inhibition at 10 µg/disc: 9 mm
  zone of inhibition at 100 µg/disc: 31.5 mm

## C=CCOC(Cn1ccnc1)c1ccc(Cl)cc1Cl (stereo not drawn) [Imazalil, 1-[2-(2,4-dichlorophenyl)-2-(2-propenyloxy)ethyl]-1H-imidazole]
Acid phosphatase
  Production of acid phosphatase: totally inhibited
hyaluronidase
  fall of hyaluronidase levels: 50%
lipase; 10 μg/ml Imazalil
  reduction of lipase activity: 29%
lipase; 100 μg/ml Imazalil
  reduction of lipase activity: 68%
P. acnes [1]; Cutibacterium acnes, 10 μg, read-out: Zone of Imhibition, P. acnes
  zone of inhibition at 10 µg/disc: 3 mm
P. acnes [1]; Cutibacterium acnes, 80 μg, read-out: Zone of Imhibition, P. acnes
  zone of inhibition at 80 µg/disc: 22 mm
S. epidermidis; Staphylococcus epidermidis, 10 μg, read-out: Zone of Imhibition, S. epidermidis
  zone of inhibition at 10 µg/disc: 3 mm
S. epidermidis; Staphylococcus epidermidis, 80 μg, read-out: Zone of Imhibition, S. epidermidis
  zone of inhibition at 80 µg/disc: 7.5 mm
[2]
  zone of inhibition at 10 µg/disc: 0 mm
  zone of inhibition at 100 µg/disc: 5.5 mm
Pi. ovale; 10 μg
  zone of inhibition at 10 µg/disc: 11 mm
Pi. ovale; 80 μg
  zone of inhibition at 80 µg/disc: 28 mm
P. acnes [3]; 1% artificial sebum in agar
  inhibitive effect of lipids (sebum) on activity: partially inhibited
P. acnes [3]; [4]
  zone of inhibition at 10 µg/disc: 0 mm
  zone of inhibition at 100 µg/disc: 1.5 mm
P. acnes [3]; [5]
  zone of inhibition at 10 µg/disc: 0 mm
  zone of inhibition at 100 µg/disc: 5 mm
